Here are results for 33 molecules from ChEMBL document CHEMBL1146379, “Solid phase synthesis and SAR of small molecule agonists for the GPR40 receptor” (Bioorg Med Chem Lett, 2007).

Series [1] has as its target T1, Free fatty acid receptor 1 (Homo sapiens, UniProt O14842). Description: Agonist activity at GPR40 receptor expressed in CHO cells by reporter gene assay. The format is functional, cell-based.
Series [2] addresses T1, Free fatty acid receptor 1. Description: Agonist activity at GPR40 receptor. It is filed as functional.
Series [3] can be described thus: Distribution coefficient, log D at pH 7.4. It is filed as physicochemical. As to conditions: octanol/water.
Series [4] in a line: Solubility at pH 7.4. It is filed as physicochemical. To be noted: buffer.

Converted amounts (≈) assume the structure as drawn.

T1 sequence (O14842 whole entry): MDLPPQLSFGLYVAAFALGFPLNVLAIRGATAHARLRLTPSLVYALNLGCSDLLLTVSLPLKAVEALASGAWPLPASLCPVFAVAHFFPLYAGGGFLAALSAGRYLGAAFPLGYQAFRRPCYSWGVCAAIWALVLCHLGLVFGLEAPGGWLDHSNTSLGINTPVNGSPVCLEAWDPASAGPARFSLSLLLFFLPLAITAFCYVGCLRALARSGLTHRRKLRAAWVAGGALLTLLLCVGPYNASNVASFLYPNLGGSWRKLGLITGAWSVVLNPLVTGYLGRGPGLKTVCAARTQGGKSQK

Usually EC50 stands for the midpoint of the concentration-response curve. Lower therefore signals a more potent agent. For the molecule `O=C(O)Cc1ccc(NCc2cccc(Oc3ccccc3)c2)cc1`, the %max in series [1] is 32%. Also, in series [2], the EC50 is 3980 nM.

Take `O=C(O)CCc1ccc(NCc2ccc(Cl)c(Cl)c2)cc1`: the %max in series [1] stood at 117%. The same molecule showed an EC50 in series [2] of 251 nM.

For the molecule `O=C(O)CCc1cccc(NCc2cccc(Oc3ccccc3)c2)c1`, the %max in series [1] came to 148%. This molecule had an EC50 in series [2] of 398 nM. Take `O=C(O)CCc1ccc(NCc2cccc(F)c2)cc1`: in series [1], the %max was 120%. Further, in series [2], a half-maximal effect (EC50) was put at 5010 nM. `O=C(O)CCc1ccc(NCc2cc(C(F)(F)F)cnc2Cl)cc1` gave a %max in series [1] of 112%. The molecule also had an EC50 in series [2] of 5010 nM. Take `CC(C(=O)O)c1ccc(NCc2cccc(Oc3ccccc3)c2)cc1` (stereo unspecified): the %max in series [1] amounted to 34%. The molecule also showed an EC50 in series [2] of 16600 nM. The molecule `O=C(O)CCc1ccc(NCc2ccc(C(F)(F)F)cc2)cc1` yielded a %max in series [1] of 133%. The molecule `O=C(O)CCc1cccc(NCc2ccc(-c3ccccc3)cc2)c1` showed a %max in series [1] of 160%. This molecule showed an EC50 in series [2] of 501 nM. As to `CC(C(=O)O)c1ccc(NCc2ccc(-c3ccccc3)cc2)cc1` (stereo unspecified), in series [1], the %max worked out at 21%.

`O=C(O)CCc1ccc(NCc2ccc(C(=O)O)cc2)cc1` registered a %max in series [1] of 9%. As to `COc1ccc(CNc2ccc(CCC(=O)O)cc2)cc1`, the %max in series [1] came to 159%. The same molecule had an EC50 in series [2] of 1260 nM.

Turning to `O=C(O)C1CC1c1ccc(NCc2cccc(Oc3ccccc3)c2)cc1` (stereo unspecified), in series [1], the %max was 74%. Also, the EC50 in series [2] is 50.1 nM. In turn, `O=C(O)CCCc1ccc(NCc2ccc(-c3ccccc3)cc2)cc1` showed a %max in series [1] of 62%. Moreover, a half-maximal response in series [2] (EC50) required 1580 nM. In series [1], `O=C(O)CCc1ccc(NCc2ncc[nH]2)cc1` yielded a %max of 4%. On the same count and under the same terms, the same measure for `CN(C)Cc1ccc(CNc2ccc(CCC(=O)O)cc2)cc1`: 12%; for `NC(=O)c1cccc(CNc2ccc(CCC(=O)O)cc2)c1`: 18%; for `O=C(O)CCc1ccc(NCc2ccc3c(c2)OCO3)cc1`: 141%. Consider `O=C(O)CCc1ccc(NCc2ccc3ccccc3c2)cc1`, for which the %max in series [1] was determined as 123%. Further, in series [2], the concentration for a half-maximal effect (EC50) is 794 nM.

`O=C(O)CCc1ccc(NCc2ccc(Oc3ccccc3)cc2)cc1` had a %max in series [1] of 139%. For the same molecule, the EC50 in series [2] is 195 nM. As a reminder, the logD is the decadic logarithm of the distribution of all forms, ionised or not, between an organic phase and buffer at a given pH. The low end stands for a more hydrophilic compound, the high end for a more lipophilic compound. As a reminder, the solubility is how much of the substance goes into solution per volume. A low value points to little dissolved substance. In series [3], `O=C(O)CCc1ccc(NCc2ccc(Cl)cc2)cc1` returned a logD of 0.98. The molecule further showed a solubility in series [4] of 830 µg/mL (≈ 2860 µM). Further, in series [1], the %max was found to be 111%. This molecule gave an EC50 in series [2] of 1000 nM. `Cc1ccc(CNc2ccc(CCC(=O)O)cc2)cc1` returned a %max in series [1] of 152%. In series [2], this molecule had an EC50 of 3980 nM. `O=C(O)CCCc1ccc(NCc2cccc(Oc3ccccc3)c2)cc1` registered a %max in series [1] of 74%. In series [2], this molecule gave a concentration giving a half-maximal response (EC50) of 3160 nM. On to `O=C(O)CCc1ccc(NCc2ccccc2)cc1`, for which the %max in series [1] was 144%. For the same molecule, the EC50 in series [2] is 7940 nM. On to `O=C(O)CCc1ccc(NCc2ccccc2Cl)cc1`, for which the %max in series [1] amounted to 122%. The molecule further showed an EC50 in series [2] of 3980 nM. The like results for `O=C(O)Cc1ccc(NCc2ccc(-c3ccccc3)cc2)cc1` were, in that order, 69% and 12300 nM.

In series [1], `O=C(O)CCc1ccc(NCc2cccc(Br)c2)cc1` showed a %max of 120%. For the same molecule, the EC50 in series [2] was 794 nM.

`CS(=O)(=O)Nc1cccc(CNc2ccc(CCC(=O)O)cc2)c1` returned a %max in series [1] of 9%. In series [1], `O=C(O)C1CC1c1ccc(NCc2ccc(-c3ccccc3)cc2)cc1` (stereo unspecified) showed a %max of 80%. The molecule further had an EC50 in series [2] of 39.8 nM.

In series [1], `O=C(O)CCc1ccc(NCc2ccc(Cl)s2)cc1` registered a %max of 143%. As to `O=C(O)CCc1ccc(NCc2cccnc2)cc1`, the %max in series [1] is 4%. Same read-out and setting: the same measure for `N#Cc1ccc(CNc2ccc(CCC(=O)O)cc2)cc1`: 49%; for `O=C(O)CCc1ccc(NCc2ccc(O)cc2)cc1`: 37%.

The molecule `O=C(O)CCc1ccc(NCc2ccc(-c3ccccc3)cc2)cc1` had a %max in series [1] of 111%. The molecule also had an EC50 in series [2] of 251 nM.
